{"source": "PubChem BioAssay AID1963854", "about": "(Molecular Pharmacology Branch, DTP, NCI, 2024);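 note: spheroids exposed to compounds for seven days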;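 for viability, T/C: 100% = DMSO vehicle control viability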", "system": "186277-243-T-J2-PDC complex spheroid viability", "assay": "Anticancer human tumor 186277-243-T-J2-PDC patient-derived colon adenocarcinoma cell line growth inhibition [POLQ]", "conditions": "for IC50: curve of first compound; for viability, T/C: stronger effect = lower value", "description": "Multicellular complex tumor spheroid response to Polymerase (POL) inhibitors (novobiocin, ART-558, RP6685) in combination with a variety of drugs and investigational agents in selected tumor cell lines\nThe POL inhibitors (novobiocin, ART-558, and RP6685) were evaluated both individually and in combination with standard of care and investigational anticancer small molecules within a complex spheroid model of solid tumors. . Complex spheroids include a stromal component modeled by human endothelial cells (HUVEC) and fibroblasts modeled by human mesenchymal stem cells (MSCs). The concentration ranges selected for each drug and investigational agent were based upon clinically achievable concentrations if the clinical Cmax of the agent was known.\nCompounds. The drugs and investigational agents: novobiocin (NSC847541), ART-558 (NSC835418), RP-6685 (NSC848927), peposertib (NSC802822), ceralasertib (NSC780249), elimusertib (NSC800525), camonsertib (NSC841442), AZD-1390 (NSC803789), olaparib (NSC753686), talazoparib (NSC767125), rucaparib (NSC756644), sotorasib (NSC818433), MRTX-1133 (NSC836407), SN-38 (NSC673596), topotecan (NSC609699), epotoside (NSC141540), doxorubicin (NSC123127), gemcitabine (NSC613327), 5-fluorouracil (NSC19893), paclitaxel (NSC125973), vemurafenib (NSC761431), MSA-2 (NSC828583), SN-011 (NSC837082), adavosertib (NSC754352), prexasertib (NSC758257), carboplatin (NSC241240) and oxaliplatin (NSC266046), were obtained from the National Cancer Institute (NCI) Developmental Therapeutics Program Chemical Repository (21). The FDA-approved anticancer drug set is available from the Developmental Therapeutics Program at https://dtp.cancer.gov/organization/dscb/obtaining/. […] The stock solutions were prepared in dimethyl sulfoxide (DMSO, Sigma-Aldrich, St. Louis, MO, cat. D2650), except for the platinum compounds which were prepared in saline (Quality Biological, Gaithersburg, MD, cat. 114-055-101), at 800-fold the tested concentration and stored at -70 degrees C prior to their use. All drugs and investigational agents were tested over a range starting from a high concentration at or near the clinical Cmax and decreasing in half-log increments. If the clinical Cmax for an agent had not been determined, the highest concentration tested was 10 microM, except for SN-38, which was tested at a high concentration of 1 microM.\nCell Culture. All cells were maintained in an incubator at 37 degrees C and 5% CO2 with 95% humidity. The PDC lines were cultured according to standard operating procedures established by the NCI PDMR (https://pdmr.cancer.gov). Table 3 of the manuscript, lists the cell lines along with the number of the three cell types plated to form the mct-spheroids and media for tumor cell growth. After thawing, all PDC lines, except 997537-175-T-J1-PDC and 415267-285-R-J2-PDC, were cultured in Matrigel-coated flasks prepared with a working solution of 1X Ham's F-12 nutrient mix, without supplementation (Thermo Fisher Scientific, cat. 11765054), 100 U/mL penicillin-streptomycin (Thermo Fisher Scientific, cat. 15140122), and 2.5% Matrigel (Corning Inc., Corning, NY, cat. 354248) for the first three passages. The two PDC lines 997537-175-T-J1-PDC and 415267-285-R-J2-PDC were cultured on uncoated flasks. The 857933-349-R-J2-PDC line was cultured in 6C/Colon 1B media containing advanced DMEM/F-12 (Thermo Fisher Scientific, cat. 12634028), 10 mM HEPES (Thermo Fisher Scientific, cat. 15630080), 1X GlutaMAX supplement (Thermo Fisher Scientific, cat. 35050061), 0.1 mg/mL primocin (InvivoGen, San Diego, CA, cat. ant-pm-2), 10% defined fetal bovine serum, heat inactivated (HyClone Laboratories Inc., Logan, UT, cat. SH30070.03HI), 50% L-WRN conditioned media (ATCC, cat. CRL-3276), 1.25 mM N-Acetyl-L-cysteine (Sigma-Aldrich, cat. A9165), 10 mM nicotinamide (Sigma-Aldrich, cat. N0636), 1X B-27 supplement (Thermo Fisher Scientific, cat. 17504044), 1X N-2 supplement (Thermo Fisher Scientific, cat. […]", "data": [{"smiles": "CC(=O)O[C@H]1C(=O)[C@@]2(C)[C@H]([C@H](OC(=O)c3ccccc3)[C@]3(O)C[C@H](OC(=O)[C@H](O)[C@@H](NC(=O)c4ccccc4)c4ccccc4)C(C)=C1C3(C)C)[C@]1(OC(C)=O)CO[C@@H]1C[C@@H]2O", "note": "+ Cc1cccc(N(C)C(=O)C2C(O)CCN2c2nc(C)cc(C(F)(F)F)c2C#N)c1", "values": [{"measurement": "IC50", "setting": "second compound 0.0316 µM", "result": "< 9.49", "unit": "nM"}, {"measurement": "IC50", "setting": "second compound 0.1 µM", "result": "< 9.49", "unit": "nM"}, {"measurement": "IC50", "setting": "second compound 0.316 µM", "result": "< 9.49", "unit": "nM"}, {"measurement": "IC50", "setting": "second compound 1 µM", "result": "< 9.49", "unit": "nM"}, {"measurement": "IC50", "setting": "second compound 3.16 µM", "result": "< 9.49", "unit": "nM"}, {"measurement": "IC50", "setting": "second compound 10 µM", "result": "< 9.49", "unit": "nM"}, {"measurement": "viability, T/C", "setting": "second compound 0.0316 µM, first compound 0.00949 µM", "result": 37.5, "unit": "%"}, {"measurement": "viability, T/C", "setting": "second compound 0.0316 µM, first compound 0.03 µM", "result": 10.3, "unit": "%"}, {"measurement": "viability, T/C", "setting": "second compound 0.0316 µM, first compound 0.0949 µM", "result": 7.26, "unit": "%"}, {"measurement": "viability, T/C", "setting": "second compound 0.0316 µM, first compound 0.3 µM", "result": 5.79, "unit": "%"}, {"measurement": "viability, T/C", "setting": "second compound 0.0316 µM, first compound 0.949 µM", "result": 5.96, "unit": "%"}, {"measurement": "viability, T/C", "setting": "second compound 0.0316 µM, first compound 3 µM", "result": 6.11, "unit": "%"}, {"measurement": "viability, T/C", "setting": "second compound 0.1 µM, first compound 0.00949 µM", "result": 35, "unit": "%"}, {"measurement": "viability, T/C", "setting": "second compound 0.1 µM, first compound 0.03 µM", "result": 10.9, "unit": "%"}, {"measurement": "viability, T/C", "setting": "second compound 0.1 µM, first compound 0.0949 µM", "result": 7.5, "unit": "%"}, {"measurement": "viability, T/C", "setting": "second compound 0.1 µM, first compound 0.3 µM", "result": 5.9, "unit": "%"}, {"measurement": "viability, T/C", "setting": "second compound 0.1 µM, first compound 0.949 µM", "result": 5.52, "unit": "%"}, {"measurement": "viability, T/C", "setting": "second compound 0.1 µM, first compound 3 µM", "result": 6.96, "unit": "%"}, {"measurement": "viability, T/C", "setting": "second compound 0.316 µM, first compound 0.00949 µM", "result": 45.3, "unit": "%"}, {"measurement": "viability, T/C", "setting": "second compound 0.316 µM, first compound 0.03 µM", "result": 10.2, "unit": "%"}, {"measurement": "viability, T/C", "setting": "second compound 0.316 µM, first compound 0.0949 µM", "result": 6.71, "unit": "%"}, {"measurement": "viability, T/C", "setting": "second compound 0.316 µM, first compound 0.3 µM", "result": 5.81, "unit": "%"}, {"measurement": "viability, T/C", "setting": "second compound 0.316 µM, first compound 0.949 µM", "result": 5.53, "unit": "%"}, {"measurement": "viability, T/C", "setting": "second compound 0.316 µM, first compound 3 µM", "result": 5.53, "unit": "%"}, {"measurement": "viability, T/C", "setting": "second compound 1 µM, first compound 0.00949 µM", "result": 34.8, "unit": "%"}, {"measurement": "viability, T/C", "setting": "second compound 1 µM, first compound 0.03 µM", "result": 12.4, "unit": "%"}, {"measurement": "viability, T/C", "setting": "second compound 1 µM, first compound 0.0949 µM", "result": 6.22, "unit": "%"}, {"measurement": "viability, T/C", "setting": "second compound 1 µM, first compound 0.3 µM", "result": 5.71, "unit": "%"}, {"measurement": "viability, T/C", "setting": "second compound 1 µM, first compound 0.949 µM", "result": 5.47, "unit": "%"}, {"measurement": "viability, T/C", "setting": "second compound 1 µM, first compound 3 µM", "result": 5.47, "unit": "%"}, {"measurement": "viability, T/C", "setting": "second compound 3.16 µM, first compound 0.00949 µM", "result": 27.2, "unit": "%"}, {"measurement": "viability, T/C", "setting": "second compound 3.16 µM, first compound 0.03 µM", "result": 10.5, "unit": "%"}, {"measurement": "viability, T/C", "setting": "second compound 3.16 µM, first compound 0.0949 µM", "result": 6.13, "unit": "%"}, {"measurement": "viability, T/C", "setting": "second compound 3.16 µM, first compound 0.3 µM", "result": 5.47, "unit": "%"}, {"measurement": "viability, T/C", "setting": "second compound 3.16 µM, first compound 0.949 µM", "result": 5.6, "unit": "%"}, {"measurement": "viability, T/C", "setting": "second compound 3.16 µM, first compound 3 µM", "result": 5.16, "unit": "%"}, {"measurement": "viability, T/C", "setting": "second compound 10 µM, first compound 0.00949 µM", "result": 20.3, "unit": "%"}, {"measurement": "viability, T/C", "setting": "second compound 10 µM, first compound 0.03 µM", "result": 6.86, "unit": "%"}, {"measurement": "viability, T/C", "setting": "second compound 10 µM, first compound 0.0949 µM", "result": 5.75, "unit": "%"}, {"measurement": "viability, T/C", "setting": "second compound 10 µM, first compound 0.3 µM", "result": 5.46, "unit": "%"}, {"measurement": "viability, T/C", "setting": "second compound 10 µM, first compound 0.949 µM", "result": 5.93, "unit": "%"}, {"measurement": "viability, T/C", "setting": "second compound 10 µM, first compound 3 µM", "result": 6.1, "unit": "%"}]}]}
